The source of these data is patent publication EP2030621A1, “Novel substituted pyrimidines as cysteine protease inhibitors” (GLAXO GROUP LIMITED, priority 2007, dated 2009).

Structures are written as SMILES. Structures can show the parent of a compound that is named as a salt. Where only a bound is given, the exact number is not on record here.

The subject of the first experiment is Plasmodium falciparum parasite. The experiment in a line: Whole cell assay: whole cell activity against the parasite. In kind it is cell-based.
Details: not given
An excerpt: Compounds can be evaluated for whole cell actvity against the Plasmadium falciparum parasite according to the procedure described in Sijwali S. and Rosenthal P. J., (2004) Proceedings of the National Academy of Sciences of the United States of America (PNAS) 101(13), 4384-4389 (see in particular "Measurement of Parasite Growth rates and Inhibitor Sensitivity" on page 4385); IC50 values can be calculated as described in Singh A. and Rosenthal P. J., (2001) Antimicrobial Agents and Chemotherapy 45(3), 949-951 (see in particular page 950, first column); synchronised parasites can be prepared as described in Divo A. A. et al., (1985) Protozool. 32, 59-64. 3) In vitro models to evaluate activity against bone metastasis
By IC50 is commonly meant the concentration needed to halve the response being measured. Read a low IC50 as inhibition by little substance. `CN1CCC(CN2CCN(Cc3ccc(C(=O)NN(c4nc(C#N)ncc4Br)C4CCCC4)cc3)CC2)CC1` [Example 7, N'-(5-bromo-2-cyano-4-pyrimidinyl)-N'-cyclopentyl-4-({4-[(1-methyl-4-piperidinyl)methyl]-1-piperazinyl}methyl)benzohydrazide trifluoroacetate]: the IC50 lay in the range of 1 to 2.5 nM.

The experiment is the same for the next values; noted with them: Plasmodium falciparum.
`CC1CCC(N(NC(=O)c2ccc(CN3CCN(CC4CCN(C)CC4)CC3)cc2)c2nc(C#N)ncc2Br)C1` (mixture of isomers) [Example 5, N'-(5-bromo-2-cyano-4-pyrimidinyl)-N'-(3-methylcyclopentyl)-4-({4-[(1-methyl-4-piperidinyl)methyl]-1-piperazinyl}methyl)benzohydrazide trifluoroacetate] yielded a 50% inhibitory concentration (IC50) of 2.5 to 15 nM.
As to `CC1CCC(N(NC(=O)c2ccc(CN3CCN(C)CC3)cc2)c2nc(C#N)ncc2Br)C1` (mixture of isomers) [Example 26, N'-(5-bromo-2-cyano-4-pyrimidinyl)-N'-(3-methylcyclopentyl)-4-[(4-methyl-1-piperazinyl)methyl]benzohydrazide trifluoroacetate], the IC50 was 15 to 150 nM.
In turn, `C[C@H]1CCC[C@H]1N(NC(=O)c1ccc(CN2CCN(C)CC2)cc1)c1nc(C#N)ncc1Br` (racemic) [Example 2, N'-(5-bromo-2-cyano-4-pyrimidinyl)-N'-[(1R,2S+1S,2R)-2-methylcyclopentyl]-4-[(4-methyl-1-piperazinyl)methyl]benzohydrazide trifluoroacetate] registered an IC50 of 15 to 150 nM.
Regarding `C[C@@H]1CCC[C@H]1N(NC(=O)c1ccc(CN2CCN(C)CC2)cc1)c1nc(C#N)ncc1Br` (racemic) [Example 3, N'-(5-bromo-2-cyano-4-pyrimidinyl)-N'-[(1R,2R+1S,2S)-2-methylcyclopentyl]-4-[(4-methyl-1-piperazinyl)methyl]benzohydrazide trifluoroacetate], the IC50 lay in the range of 2.5 to 15 nM.
The compound `C[C@@H]1CCC[C@H]1N(NC(=O)c1ccc(F)cc1)c1nc(C#N)ncc1Br` (racemic) [Example 43, N'-(5-bromo-2-cyano-4-pyrimidinyl)-4-fluoro-N'-[(1R,2R+1S,2S))-2-methylcyclopentyl]benzohydrazide trifluoroacetate] came in with an IC50 of 15 to 150 nM.
In turn, `CC1CCC(N(NC(=O)c2ccc(CN3CCC(N4CCN(C)CC4)CC3)cc2)c2nc(C#N)ncc2Br)C1` (stereo not drawn) [Example 4, N'-(5-bromo-2-cyano-4-pyrimidinyl)-N'-(3-methylcyclopentyl)-4-{[4-(4-methyl-1-piperazinyl)-1-piperidinyl]methyl}benzohydrazide trifluoroacetate] showed an IC50 below 1 nM.
For `N#Cc1ncc(Br)c(N(NC(=O)c2ccc(CN3CCC(N4CCOCC4)CC3)cc2)C2CCCC2)n1` [Example 6, N'-(5-bromo-2-cyano-4-pyrimidinyl)-N'-cyclopentyl-4-{[4-(4-morpholinyl)-1-piperidinyl]methyl}benzohydrazide trifluoroacetate], the IC50 is 15 to 150 nM.
The compound `CN1CCCC(CN2CCN(Cc3ccc(C(=O)NN(c4nc(C#N)ncc4Br)C4CCCC4)cc3)CC2)C1` (stereo not drawn) [Example 8, N'-(5-bromo-2-cyano-4-pyrimidinyl)-N'-cyclopentyl-4-({4-[(1-methyl-3-piperidinyl)methyl]-1-piperazinyl}methyl)benzohydrazide trifluoroacetate] had an IC50 of 2.5 to 15 nM.
As to `CN1CCN(C(=O)C2CCN(Cc3ccc(C(=O)NN(c4nc(C#N)ncc4Br)C4CCCC4)cc3)CC2)CC1` [Example 9, N'-(5-bromo-2-cyano-4-pyrimidinyl)-N'-cyclopentyl-4-({4-[(4-methyl-1-piperazinyl)carbonyl]-1-piperidinyl}methyl)benzohydrazide trifluoroacetate], the IC50 lay in the range of 2.5 to 15 nM.
On to `CN1CCN(C2CCN(Cc3ccc(C(=O)NN(c4nc(C#N)ncc4Br)C4CCCC4)cc3)CC2)CC1` [Example 10, N'-(5-bromo-2-cyano-4-pyrimidinyl)-N'-cyclopentyl-4-{[4-(4-methyl-1-piperazinyl)-piperidinyl]methyl}benzohydrazide trifluoroacetate], for which the IC50 was 2.5 to 15 nM.
With `CN1CCN(C2CCN(Cc3cccc(C(=O)NN(c4nc(C#N)ncc4Br)C4CCCC4)c3)CC2)CC1` [Example 11, N'-(5-bromo-2-cyano-4-pyrimidinyl)-N'-cyclopentyl-3-{[4-(4-methyl-1-piperazinyl)-1-piperidinyl]methyl}benzohydrazide trifluoroacetate], the IC50 was 2.5 to 15 nM.
In the case of `CN1CCN(C(=O)C2CCN(Cc3cccc(C(=O)NN(c4nc(C#N)ncc4Br)C4CCCC4)c3)CC2)CC1` [Example 12, N'-(5-bromo-2-cyano-4-pyrimidinyl)-N'-cyclopentyl-3-({4-[(4-methyl-1-piperazinyl)carbonyl]-1-piperidinyl}methyl)benzohydrazide trifluoroacetate], the IC50 is 2.5 to 15 nM.
As to `N#Cc1ncc(Br)c(N(NC(=O)c2cccc(CN3CCC(N4CCOCC4)CC3)c2)C2CCCC2)n1` [Example 13, N'-(5-bromo-2-cyano-4-pyrimidinyl)-N'-cyclopentyl-3-{[4-(4-morpholinyl)-1-piperidinyl]methyl}benzohydrazide trifluoroacetate], the IC50 lay in the range of 15 to 150 nM.
`CN1CCCC(CN2CCN(Cc3cccc(C(=O)NN(c4nc(C#N)ncc4Br)C4CCCC4)c3)CC2)C1` (stereo not drawn) [Example 14, N'-(5-bromo-2-cyano-4-pyrimidinyl)-N'-cyclopentyl-3-({4-[(1-methyl-3-piperidinyl)methyl]-1-piperazinyl}methyl)benzohydrazide trifluoroacetate] came in with an IC50 of 2.5 to 15 nM.
Take `CN1CCN(Cc2ccc(C(=O)NN(c3nc(C#N)ncc3Br)C3CCCCC3)cc2)CC1` [Example 16, N'-(5-bromo-2-cyano-4-pyrimidinyl)-N'-cyclohexyl-4-[(4-methyl-1-piperazinyl)methyl]benzohydrazide trifluoroacetate]: the IC50 lay within 2.5 to 15 nM.
Compound `CN1CCN(C2CCN(Cc3ccc(C(=O)NN(c4nc(C#N)ncc4Br)C4CCCCC4)cc3)CC2)CC1` [Example 17, N'-(5-bromo-2-cyano-4-pyrimidinyl)-N'-cyclohexyl-4-{[4-(4-methyl-1-piperazinyl)-1-piperidinyl]methyl}benzohydrazide trifluoroacetate] showed an IC50 of 2.5 to 15 nM.
In turn, `N#Cc1ncc(Br)c(N(NC(=O)c2ccc(CN3CCC(N4CCOCC4)CC3)cc2)C2CCCCC2)n1` [Example 18, N'-(5-bromo-2-cyano-4-pyrimidinyl)-N'-cyclohexyl-4-{[4-(4-morpholinyl)-1-piperidinyl]methyl}benzohydrazide trifluoroacetate] registered an IC50 of 15 to 150 nM.
`CN1CCC(CN2CCN(Cc3ccc(C(=O)NN(c4nc(C#N)ncc4Br)C4CCCCC4)cc3)CC2)CC1` [Example 19, N'-(5-bromo-2-cyano-4-pyrimidinyl)-N'-cyclohexyl-4-({4-[(1-methyl-4-piperidinyl)methyl]-1-piperazinyl}methyl)benzohydrazide trifluoroacetate] came in with an IC50 of 2.5 to 15 nM.
Consider `CN1CCN(C2CCN(Cc3cccc(C(=O)NN(c4nc(C#N)ncc4Br)C4CCCCC4)c3)CC2)CC1` [Example 20, N'-(5-bromo-2-cyano-4-pyrimidinyl)-N'-cyclohexyl-3-{[4-(4-methyl-1-piperazinyl)-1-piperidinyl]methyl}benzohydrazide trifluoroacetate], for which the IC50 was 2.5 to 15 nM.
The same measure, in the same setting: next, `N#Cc1ncc(Br)c(N(NC(=O)c2ccc(CN3CCC(O)CC3)cc2)C2CCCCC2)n1` [Example 21, N'-(5-bromo-2-cyano-4-pyrimidinyl)-N'-cyclohexyl-4-[(4-hydroxy-1-piperidinyl)methyl]benzohydrazide trifluoroacetate]: 15 to 150 nM; `CN1CCN(C(=O)C2CCN(Cc3ccc(C(=O)NN(c4nc(C#N)ncc4Br)C4CCCCC4)cc3)CC2)CC1` [Example 22, N'-(5-bromo-2-cyano-4-pyrimidinyl)-N'-cyclohexyl-4-({4-[(4-methyl-1-piperazinyl)carbonyl]-1-piperidinyl}methyl)benzohydrazide trifluoroacetate]: 2.5 to 15 nM; `CN1CCN(C(=O)C2CCN(Cc3cccc(C(=O)NN(c4nc(C#N)ncc4Br)C4CCCCC4)c3)CC2)CC1` [Example 23, N'-(5-bromo-2-cyano-4-pyrimidinyl)-N'-cyclohexyl-3-[{4-[(4-methyl-1-piperazinyl)carbonyl]-1-piperidinyl}methyl)benzohydrazide trifluoroacetate]: 2.5 to 15 nM.
Compound `N#Cc1ncc(Br)c(N(NC(=O)c2cccc(CN3CCC(N4CCOCC4)CC3)c2)C2CCCCC2)n1` [Example 24, N'-(5-bromo-2-cyano-4-pyrimidinyl)-N'-cyclohexyl-3-{[4-(4-morpholinyl)-1-piperidinyl]methyl}benzohydrazide trifluoroacetate] displayed an IC50 of 2.5 to 15 nM.
For the compound `CN1CCCC(CN2CCN(Cc3ccc(C(=O)NN(c4nc(C#N)ncc4Br)C4CCCCC4)cc3)CC2)C1` (stereo not drawn) [Example 25, N'-(5-bromo-2-cyano-4-pyrimidinyl)-N'-cyclohexyl-4-({4-[(1-methyl-3-piperidinyl)methyl]-1-piperazinyl}methyl)benzohydrazide trifluoroacetate], the IC50 fell in the range of 2.5 to 15 nM.
The compound `CN1CCCC(CN2CCN(Cc3cccc(C(=O)NN(c4nc(C#N)ncc4Br)C4CCCCC4)c3)CC2)C1` (stereo not drawn) [Example 27, N'-(5-bromo-2-cyano-4-pyrimidinyl)-N'-cyclohexyl-3-({4-[(1-methyl-3-piperidinyl)methyl]-1-piperazinyl}methyl)benzohydrazide trifluoroacetate] registered an IC50 of 2.5 to 15 nM.
Consider `CN1CCC(CN2CCN(Cc3cccc(C(=O)NN(c4nc(C#N)ncc4Br)C4CCCCC4)c3)CC2)CC1` [Example 28, N'-(5-bromo-2-cyano-4-pyrimidinyl)-N'-cyclohexyl-3-({4-[(1-methyl-4-piperidinyl)methyl]-1-piperazinyl}methyl)benzohydrazide trifluoroacetate], for which the IC50 was in the range of 2.5 to 15 nM.
